We go through 2 compounds from US5369113A, “Certain 2,3-diphenyl-2-(1,2,4-oxadiazol-5-yl)tropanes useful as dopamide reuptake inhibitors” (NeuroSearch A/S, priority 1992, dated 1994).

For series [1] the following is noted: at every relevant dosing level tested.
Source text: The low intensity behavioural effects are here included into the locomotor and rearing syndrome.
The high intensity syndrome of stereotypy is here considered, if the behavioural repertoire of the rat becomes strongly restricted in variation and consists of the continuous repetition of one or a few items of behaviour.
The syndrome of stereotyped sniffing behaviour is thus performed continuously on only a small restricted area of the cage. […] During this stage of high intensity stereotypy all normal behavioural elements are absent including behaviour such as eating, drinking, grooming and normal explorative investigation of the environment. […] The rats are here usually sitting in a typical crouched posture in a corner of the cage. Backward locomotion may occasionally be observed.
The following rating scale is used for the high intensity stereotypy on the condition that the behavioural syndromes are as described above:
+=only stereotyped sniffing
++=stereotyped sniffing and episodic licking
+++=Continuous licking and/or biting gnawing
In another series the test system is dopamine release. Particulars: background statement; cited from earlier work.

Turning to `COC(=O)[C@@H]1[C@@H](c2ccc(F)cc2)C[C@@H]2CC[C@H]1N2C` [trans isomer of Win 35,428, (1R,2R,3S)-2-carbomethoxy-3-(4-fluorophenyl)tropane], in series [1], the “side effects as measured by abnormal stereotyped behaviour” value was “essentially or totally devoid of side effects”.

`COC(=O)[C@H]1[C@@H](OC(=O)c2ccccc2)C[C@@H]2CC[C@H]1N2C` [cocaine]: the dopamine releasing properties result in the series with dopamine release is recorded as “strong dopamine releasing properties”.
